Measurements taken from the supplement of paper PMC7840683.
± gives the standard deviation of the averaged measurements.

Tested on: HepaRG
Experiment: LDH release cytotoxicity, % of total lysis control; higher = more cytotoxic
Settings: 48 h
How it was run: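 Percent cytotoxicity was scaled between on-plate vehicle and total lysis controls, then averaged over duplicate wells. The cells were single-lot HepaRG on collagen I-coated 96-well plates, exposed for 48 h to eight-point half-log test chemical series topping at 100 µM in serum-free induction medium with 0.5% DMSO. Total lysis wells got 0.1% Triton X, and LDH in 50 µL spent medium was read as resorufin fluorescence (CytoTox-ONE, Tecan Safire).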

## Oc1ccc(C(c2ccc(O)cc2)(C(F)(F)F)C(F)(F)F)cc1 [Bisphenol AF]
0.03162 µM
  LDH release cytotoxicity: -1.31 ± 0.014%
0.1 µM
  LDH release cytotoxicity: -1.4 ± 0.37%
0.3162278 µM
  LDH release cytotoxicity: -1.16 ± 0.18%
1 µM
  LDH release cytotoxicity: -1.45 ± 0.031%
3.16228 µM
  LDH release cytotoxicity: -0.575 ± 0.055%
10 µM
  LDH release cytotoxicity: -1.57 ± 0.15%
31.6228 µM
  LDH release cytotoxicity: -1.62 ± 0.47%
100 µM
  LDH release cytotoxicity: 83.2 ± 2.1%

## CN(C)c1ccc(Cc2ccc(N(C)C)cc2)cc1 [4,4'-Methylenebis(N,N-dimethylaniline)]
0.03162 µM
  LDH release cytotoxicity: -0.47 ± 1.9%
0.1 µM
  LDH release cytotoxicity: -1.28 ± 0.91%
0.3162278 µM
  LDH release cytotoxicity: -1.73 ± 1%
1 µM
  LDH release cytotoxicity: -1.6 ± 0.25%
3.16228 µM
  LDH release cytotoxicity: -1.29 ± 0.56%
10 µM
  LDH release cytotoxicity: -1.04 ± 0.28%
31.6228 µM
  LDH release cytotoxicity: -0.536 ± 0.19%
100 µM
  LDH release cytotoxicity: 0.0839 ± 0.57%

## O=C1NC(=O)C(c2ccccc2)(c2ccccc2)N1 [5,5-Diphenylhydantoin]
0.01581 µM
  LDH release cytotoxicity: -5.31 ± 1.9%
0.05 µM
  LDH release cytotoxicity: -5.08 ± 1.3%
0.1581139 µM
  LDH release cytotoxicity: -5.88 ± 1%
0.5 µM
  LDH release cytotoxicity: -6.19 ± 1.8%
1.5811388 µM
  LDH release cytotoxicity: -4.95 ± 1.6%
5 µM
  LDH release cytotoxicity: 40.5 ± 6.5%
15.8114 µM
  LDH release cytotoxicity: 50.1 ± 6.8%
50 µM
  LDH release cytotoxicity: 44.7 ± 3.1%

## CCNS(=O)(=O)C(F)(F)C(F)(F)C(F)(F)C(F)(F)C(F)(F)C(F)(F)C(F)(F)C(F)(F)F [N-Ethylperfluorooctanesulfonamide]
0.03162 µM
  LDH release cytotoxicity: -0.318 ± 1.2%
0.1 µM
  LDH release cytotoxicity: -0.363 ± 0.53%
0.3162278 µM
  LDH release cytotoxicity: -1.47 ± 0.29%
1 µM
  LDH release cytotoxicity: -0.894 ± 0.41%
3.16228 µM
  LDH release cytotoxicity: -1.27 ± 0.88%
10 µM
  LDH release cytotoxicity: -0.5 ± 0.13%
31.6228 µM
  LDH release cytotoxicity: 0.958 ± 1.5%
100 µM
  LDH release cytotoxicity: 2.37 ± 1%

## CC(C)Nc1nc(Cl)nc(NC(C)C)n1 [Propazine]
0.03162 µM
  LDH release cytotoxicity: -0.771 ± 1.3%
0.1 µM
  LDH release cytotoxicity: -0.918 ± 1.2%
0.3162278 µM
  LDH release cytotoxicity: -0.266 ± 0.027%
1 µM
  LDH release cytotoxicity: -0.0277 ± 0.68%
3.16228 µM
  LDH release cytotoxicity: -0.787 ± 0.95%
10 µM
  LDH release cytotoxicity: -0.398 ± 0.52%
31.6228 µM
  LDH release cytotoxicity: -0.397 ± 0.52%
100 µM
  LDH release cytotoxicity: -0.828 ± 0.37%

## CCCCCCC(=O)OCC [Ethyl heptanoate]
0.03162 µM
  LDH release cytotoxicity: -1.33 ± 0.12%
0.1 µM
  LDH release cytotoxicity: -1.43 ± 1%
0.3162278 µM
  LDH release cytotoxicity: -1.58 ± 0.63%
1 µM
  LDH release cytotoxicity: -1.97 ± 0.28%
3.16228 µM
  LDH release cytotoxicity: -1.57 ± 0.64%
10 µM
  LDH release cytotoxicity: -1.28 ± 1.6%
31.6228 µM
  LDH release cytotoxicity: 0.37 ± 1%
100 µM
  LDH release cytotoxicity: 3.07 ± 1.3%

## CCn1nc(Cc2ccccc2)cc1C1CCN(CC2CC(N(C)C(C(=O)O)C(C)C)CC2c2cccc(F)c2)CC1 (configuration not stated) [MK-578]
0.03162 µM
  LDH release cytotoxicity: -1.06 ± 0.49%
0.1 µM
  LDH release cytotoxicity: -1.8 ± 0.42%
0.3162278 µM
  LDH release cytotoxicity: -1.85 ± 0.13%
1 µM
  LDH release cytotoxicity: -2.168 ± 0.0097%
3.16228 µM
  LDH release cytotoxicity: -2.16 ± 0.039%
10 µM
  LDH release cytotoxicity: -1.47 ± 0.29%
31.6228 µM
  LDH release cytotoxicity: -1.08 ± 0.3%
100 µM
  LDH release cytotoxicity: 9.55 ± 0.94%

## COC(=O)c1c(C(F)F)nc(C(F)(F)F)c(C2=NCCS2)c1CC(C)C [Thiazopyr]
0.03162 µM
  LDH release cytotoxicity: -0.958 ± 2.2%
0.1 µM
  LDH release cytotoxicity: -0.18 ± 0.21%
0.3162278 µM
  LDH release cytotoxicity: -0.693 ± 0.24%
1 µM
  LDH release cytotoxicity: -0.8 ± 0.35%
3.16228 µM
  LDH release cytotoxicity: -0.567 ± 0.015%
10 µM
  LDH release cytotoxicity: -0.719 ± 0.32%
31.6228 µM
  LDH release cytotoxicity: -0.722 ± 0.28%
100 µM
  LDH release cytotoxicity: -0.433 ± 0.5%

## CCCCOC(=O)C(C)Oc1ccc(Oc2ccc(C#N)cc2F)cc1 (configuration not stated) [Cyhalofop-butyl]
0.0314647 µM
  LDH release cytotoxicity: -1.16 ± 0.16%
0.0995 µM
  LDH release cytotoxicity: -1.07 ± 0.88%
0.3146466 µM
  LDH release cytotoxicity: -0.775 ± 0.25%
0.995 µM
  LDH release cytotoxicity: -1.29 ± 0.31%
3.14647 µM
  LDH release cytotoxicity: -0.485 ± 0.35%
9.95 µM
  LDH release cytotoxicity: 0.552 ± 1.1%
31.4647 µM
  LDH release cytotoxicity: -0.564 ± 0.059%
99.5 µM
  LDH release cytotoxicity: 0.894 ± 1%

## C1CNCCN1 [Piperazine]
0.03162 µM
  LDH release cytotoxicity: -6.9 ± 0.6%
0.1 µM
  LDH release cytotoxicity: -7.27 ± 0.36%
0.3162278 µM
  LDH release cytotoxicity: -6.65 ± 1%
1 µM
  LDH release cytotoxicity: -7.16 ± 1.9%
3.16228 µM
  LDH release cytotoxicity: -6.57 ± 0.29%
10 µM
  LDH release cytotoxicity: -6.04 ± 1.4%
31.6228 µM
  LDH release cytotoxicity: -6.14 ± 0.77%
100 µM
  LDH release cytotoxicity: -6.01 ± 1.2%

## CC(C)C(=O)OCC(C)(C)C(OC(=O)C(C)C)C(C)C (configuration not stated) [2,2,4-Trimethyl-1,3-pentanediol diisobutyrate]
0.03162 µM
  LDH release cytotoxicity: -1.97 ± 1.2%
0.1 µM
  LDH release cytotoxicity: -3.46 ± 0.69%
0.3162278 µM
  LDH release cytotoxicity: -3.48 ± 0.61%
1 µM
  LDH release cytotoxicity: -2.95 ± 0.15%
3.16228 µM
  LDH release cytotoxicity: -3.05 ± 0.42%
10 µM
  LDH release cytotoxicity: -2.18 ± 0.16%
31.6228 µM
  LDH release cytotoxicity: -2.05 ± 0.51%
100 µM
  LDH release cytotoxicity: 0.686 ± 0.88%

## COP(=O)(OC)OC=C(Cl)Cl [Dichlorvos]
0.03162 µM
  LDH release cytotoxicity: -0.581 ± 0.43%
0.1 µM
  LDH release cytotoxicity: -0.968 ± 0.24%
0.3162278 µM
  LDH release cytotoxicity: -1.1 ± 0.092%
1 µM
  LDH release cytotoxicity: -0.845 ± 0.11%
3.16228 µM
  LDH release cytotoxicity: -0.267 ± 0.61%
10 µM
  LDH release cytotoxicity: -0.149 ± 0.26%
31.6228 µM
  LDH release cytotoxicity: -0.147 ± 0.48%
100 µM
  LDH release cytotoxicity: 2.09 ± 0.43%

## CN1CCCC1c1cccnc1 (configuration not stated) [Nicotine]
0.031623 µM
  LDH release cytotoxicity: 0.0561 ± 0.16%
0.1 µM
  LDH release cytotoxicity: -2.6 ± 0.49%
0.316228 µM
  LDH release cytotoxicity: -2.47 ± 0.26%
1 µM
  LDH release cytotoxicity: -2.55 ± 0.14%
3.16228 µM
  LDH release cytotoxicity: -2.4 ± 0.23%
10 µM
  LDH release cytotoxicity: -2.95 ± 0.78%
31.6228 µM
  LDH release cytotoxicity: -1.31 ± 0.45%
100 µM
  LDH release cytotoxicity: 0.154 ± 0.86%

## CON=C(C(=O)OC)c1ccccc1CON=C(C)c1cccc(C(F)(F)F)c1 [Trifloxystrobin]
0.03162 µM
  LDH release cytotoxicity: -0.083 ± 0.59%
0.1 µM
  LDH release cytotoxicity: -0.478 ± 0.33%
0.3162278 µM
  LDH release cytotoxicity: -0.545 ± 0.8%
1 µM
  LDH release cytotoxicity: 0.0357 ± 0.72%
3.16228 µM
  LDH release cytotoxicity: -0.301 ± 0.36%
10 µM
  LDH release cytotoxicity: 0.277 ± 0.53%
31.6228 µM
  LDH release cytotoxicity: 0.163 ± 1.6%
100 µM
  LDH release cytotoxicity: 1.57 ± 1.4%

## O=C1OC(=O)C2C3C=CC(C3)C12 (configuration not stated) [2-Norbornene-5,6-dicarboxylic anhydride]
0.03162 µM
  LDH release cytotoxicity: -1.12 ± 0.28%
0.1 µM
  LDH release cytotoxicity: -0.887 ± 0.62%
0.3162278 µM
  LDH release cytotoxicity: -1.06 ± 0.25%
1 µM
  LDH release cytotoxicity: -1.3 ± 0.092%
3.16228 µM
  LDH release cytotoxicity: -0.802 ± 0.41%
10 µM
  LDH release cytotoxicity: -1.42 ± 0.42%
31.6228 µM
  LDH release cytotoxicity: -0.266 ± 0.16%
100 µM
  LDH release cytotoxicity: 1.32 ± 0.12%

## C=CCCCCCCCCC(=O)O [10-Undecenoic acid]
0.03162 µM
  LDH release cytotoxicity: 0.758 ± 0.055%
0.1 µM
  LDH release cytotoxicity: -0.653 ± 0.55%
0.3162278 µM
  LDH release cytotoxicity: -0.789 ± 0.79%
1 µM
  LDH release cytotoxicity: -0.96 ± 0.32%
3.16228 µM
  LDH release cytotoxicity: -0.518 ± 0.55%
10 µM
  LDH release cytotoxicity: -0.534 ± 0.037%
31.6228 µM
  LDH release cytotoxicity: -1.07 ± 0.49%
100 µM
  LDH release cytotoxicity: -0.0729 ± 0.15%

## Cc1cc(C)cc(C)c1 [1,3,5-Trimethylbenzene]
0.03162 µM
  LDH release cytotoxicity: -1.84 ± 0.57%
0.1 µM
  LDH release cytotoxicity: -1.84 ± 0.86%
0.3162278 µM
  LDH release cytotoxicity: -2.21 ± 0.96%
1 µM
  LDH release cytotoxicity: -2.65 ± 0.24%
3.16228 µM
  LDH release cytotoxicity: -2.52 ± 0.57%
10 µM
  LDH release cytotoxicity: -1.42 ± 0.71%
31.6228 µM
  LDH release cytotoxicity: -0.727 ± 0.4%
100 µM
  LDH release cytotoxicity: 1.41 ± 0.37%

## O=S1(=O)CCCO1 [1,3-Propane sultone]
0.03162 µM
  LDH release cytotoxicity: -0.997 ± 0.28%
0.1 µM
  LDH release cytotoxicity: -2.2 ± 0.45%
0.3162278 µM
  LDH release cytotoxicity: -1.51 ± 0.54%
1 µM
  LDH release cytotoxicity: -1.38 ± 0.031%
3.16228 µM
  LDH release cytotoxicity: -1.5 ± 0.31%
10 µM
  LDH release cytotoxicity: -1.53 ± 0.35%
31.6228 µM
  LDH release cytotoxicity: -0.817 ± 0.19%
100 µM
  LDH release cytotoxicity: -0.0166 ± 1.5%

## Cc1cccc(C)c1N [2,6-Dimethylaniline]
0.03162 µM
  LDH release cytotoxicity: -1.3 ± 1.2%
0.1 µM
  LDH release cytotoxicity: -0.274 ± 0.54%
0.3162278 µM
  LDH release cytotoxicity: -0.695 ± 1.3%
1 µM
  LDH release cytotoxicity: -2 ± 0.2%
3.16228 µM
  LDH release cytotoxicity: -1.29 ± 0.67%
10 µM
  LDH release cytotoxicity: -1.03 ± 0.33%
31.6228 µM
  LDH release cytotoxicity: -0.842 ± 0.55%
100 µM
  LDH release cytotoxicity: 3.28 ± 2.6%
